# US5411983A, “Certain hyrdoxy-phosphinyl-oxy-phenylmethyl-imidazolium hydroxide inner salts as PAF antagonists” (American Cyanamid Company, priority 1993, dated 1995)
# Where a name gives a salt, the structure may show the parent alone.
# Assays:
# PAF receptor [1] = target: T1, PAF receptor (Oryctolagus cuniculus, UniProt G1TEI7); assay: Inhibition of PAF induced platelet aggregation in washed rabbit platelets; type: cell-based; parameters: In some experiments, washed platelets were used instead of PRP; endogenous in cells; host or cells: washed rabbit platelets; conditions: for Ki: calculated from IC50, [PAF] and EC50; for IC50: challenge concentration of PAF 5E9M [sic]
# T1 sequence (G1TEI7 1-342): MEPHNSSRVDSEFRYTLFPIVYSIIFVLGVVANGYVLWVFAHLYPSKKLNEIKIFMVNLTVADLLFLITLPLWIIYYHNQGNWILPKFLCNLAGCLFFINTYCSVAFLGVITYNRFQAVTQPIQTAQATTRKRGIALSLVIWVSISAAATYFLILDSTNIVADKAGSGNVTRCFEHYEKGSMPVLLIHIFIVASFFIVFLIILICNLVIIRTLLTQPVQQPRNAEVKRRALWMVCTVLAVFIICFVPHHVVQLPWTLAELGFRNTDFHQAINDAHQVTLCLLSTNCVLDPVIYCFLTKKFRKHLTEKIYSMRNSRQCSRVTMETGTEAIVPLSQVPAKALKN
# Protocol: (§1) Platelet activating factor (PAF) compounds were evaluated as PAF receptor antagonists in vitro by measuring inhibition of PAF induced platelet aggregation. Platelet aggregation was measured by a modification of the method of A. Wissner, et. al., J. Med. Chem., 27, 1174, 1984.
# (§2) Approximately 120-240 ml of blood were collected by cardiac puncture from unanesthetized male New Zealand White rabbits (Whaley's Summit View Farms, Belvedere, N.J.) with the use of 3.2% sodium citrate anticoagulant (1 part of citrate/10 parts of blood). All syringes and pipets were plastic. The blood was gently mixed and immediately centrifuged at 800 rpm for 10 minutes at room temperature to recover the platelet rich plasma (PRP). Platelet poor plasma (PPP) was prepared by centrifuging PRP at 2800 rpm for 10 minutes at room temperature.
# (§3) Dilutions (1:3000) Of PRP in Isoton diluent were made and platelet counts were determined on a Coulter Thrombocounter which was standardized with platelet reference standards (Interscience Platelet Control, Portland, Oreg.). PRP platelet counts were adjusted to 500,000 platelets/μl by the addition of PPP.
# (§4) L-PAF was obtained from Calbiochem. A stock solution of 1-2 E-3M was prepared in 10% ethanol in water and serial working dilutions were made using phosphate buffered saline (PBS). 1-2 E-3M stock solutions of test compounds were prepared in 100% methanol and serially diluted in PBS. All solutions were made up in plastic tubes, stored on ice and protected from heat and light. Solutions were prepared fresh or frozen at -20° C. and used within 48 hours.
# (§5) Incubation mixtures consisted of 400 μl PRP, 50 μl of PBS diluent or test compound and 50 μl of PAF agonist. More specifically, 400 μl of PRP was stabilized in a cuvette for 1-2 minutes at 37° C. in the aggregometer to achieve a stable baseline, then 50 μl of PBS or test compound, was added and incubated for 5 minutes before addition of the challenge concentration of PAF ([…], as determined from the dose response curve for PAF for that experiment). Aggregation was monitored for 5 minutes. Samples containing test compound or diluent were run simultaneously for comparison. Test compounds were initially evaluated at a screening concentration of 1E-5M. Those producing ≥ 50% inhibition of the magnitude of aggregation were then reevaluated in a dose response fashion (final concentrations 1E-7M to 5E-5M) and IC50 values were determined. Ki values were also calculated in some cases from [formula] where Ki =inhibitory constant
# (§6) IC50 =molar concentration of test compound which gives 50% inhibition
# (§7) [PAF]=molar concentration of PAF used as challenges
# (§8) EC50 =molar concentration of PAF which gives 50% of maximal aggregation.
# (§9) The recording equipment consisted of single or dual channel Chronolog aggregometers connected to dual channel 10 MV full scale deflection Omniscribe chart recorders (Houston Instruments). […] The bead suspension was used to set the 0% light transmission mark and clear water was used to set the 100% light transmission mark. These limits defined a full scale deflection. The aggregation traces were analyzed by a digitizing method (C. Kohler and B. Zoltan, J. Pharm. Methods, 12, 113, 1984) with x, y coordinate data stored in a computer file. A suitable program computed parameters of interest such as the magnitude of aggregation.
# In some experiments, washed platelets were used instead of PRP. Washed platelet suspensions were prepared as follows. PRP was centrifuged at 2800 rpm for 10 minutes to obtain PPP and a platelet pellet. The pellet was gently suspended and washed in calcium free, albumin free Tyrode's buffer, pH 6.3. The suspension was recentrifuged and the washed pellet was resuspended in normal Tyrodes', buffer (with calcium, but albumin free), pH 7.4. Platelet counts were adjusted to 500,00 platelets/μl.
# [2] = system: PAF induced vascular permeability change in mouse skin; assay: Inhibition of PAF induced vascular permeability change in mouse skin; type: in vivo, mouse (Hilltop ICR); conditions: ip, 0.5 h, test compound i.p., PAF i.d., read-out: Inhibition of Vascular Permeability Lesion (ED50 mg/kg)
# Protocol: Inhibition of PAF Induced Vascular Permeability Change in Mouse Skin
# The rationale for this test is similar to the coinjection test in guinea pigs; however, the test compound was given intraperitoneally rather than coinjected.
# Test solutions were prepared as follows: An 80 μg portion of PAF was dissolved in 40 ml of saline to yield a concentration of 2000 ng/ml. A 10 mg portion of histamine diphosphate was dissolved in 100 ml of saline to yield a concentration 100 μg/ml. Test compounds were dissolved in saline and given intraperitoneally (20 mg/kg) 1/2 hour before intradermal challenge with PAF or histamine.
# The animals used were Hilltop ICR mice, shaved on their flanks one day before use. The mice were randomly assigned to treated and control groups and were given test compound or saline 1/2 hour before challenge. Each mouse was injected via a tail vein with 0.25 ml of 0.05% Evans' blue dye immediately before the PAF or histamine intradermal injections were made (0.05 ml each), one per side.
# Thirty minutes later the animals were killed and the lesions areas measured as described above. Lesion areas in treated animals were expressed as a percent of the control lesions and an ED50 (mg/kg) was calculated from an arcsine area vs. log dose transform.
# PAF receptor [3] = target: T1, PAF receptor; assay: Inhibition of PAF induced platelet aggregation in rabbit platelet rich plasma (PRP); type: cell-based, rabbit (male New Zealand White); parameters: immediately centrifuged at 800 rpm for 10 minutes at room temperature to recover the platelet rich plasma (PRP); endogenous in cells; host or cells: rabbit platelets in platelet rich plasma (male New Zealand White rabbits); conditions: for IC50: rabbit platelet rich plasma
# Protocol: as §1, §2, §3, §4, §5, §6, §7, §8, §9
# [4] = system: PAF induced vascular permeability change in guinea pig skin
# Source text: Platelet Activating Factor (PAF) given intradermally, increases capillary permeability, and plasma proteins (e.g albumin) leak from the vascular space into the interstitial fluids of the skin. If the albumin has been previously stained with Evans' blue dye, the lesion area can be visualized as a blue spot in the .skin. A specific PAF antagonist inhibits the development of increased capillary permeability caused by PAF and reduces the leakage of proteins into the skin. Test compounds were evaluated for non-specific effects by monitoring their ability to inhibit or reduce a histamine induced increase in capillary permeability.
# Test Solutions were prepared as follows: Evans' Blue Dye (Sigma E2129) was dissolved in saline to yield a 0.1% w/v solution. A 2 mg/ml stock chloroform solution of PAF (1-phosphotidyl, acetyl-O-alkyl; Sigma P9525) was diluted in saline to give final concentrations of 500 and 250 ng/ml. Saline dilutions were made fresh for each test. Histamine diphosphate solutions (Sigma H7375) were prepared by dissolving 10 mg in 100 ml of saline and diluting to 20 μg/ml with saline. Test compounds were dissolved in ethanol at 10 mg/ml and stored at -70° C. Injection mixtures were made by placing 10 μl of test compound solution into 1.0 ml of either the PAF solutions or the histamine solution.
# The animals used were Hartley strain guinea pigs weighing 250-350 g, maintained with food and water ad libitum. The animals were shaved on their back and hind feet one day before use.
# Each guinea pig was given an intravenous injection of 2 ml of Evans' blue dye solution into a foot vein. Immediately after, a series of six intradermal injections of 0.1 ml each were given, three on each side of the animal. They were: PAF 50 ng (0.1 ml of a 500 ng/ml solution); PAF 25 ng; and histamine diphosphate 2 μg. The left side injections contain 10 μg of test compound while the right side contain an equivalent amount of the ethanol vehicle to serve as a control.
# Thirty minutes later the animals were killed by cervical dislocation and the skin reflected from the back. The lesion areas were approximated as the product of the largest diameter and normal diameter both in mm.
# PAF induced lethality = PAF induced lethality in the mouse; type: in vivo, mouse (ICR); conditions: ip, 1 h, mice, test compound i.p. 1/2 hour before PAF i.v., dose that protects 1/2 the animals, read-out: PAF induced Lethality PD50 (mg/kg I.P., 1/2 hour)
# Protocol: PAF Induced Lethality in the Mouse
# Test compounds were evaluated for their ability to prevent death induced by an intravenous injection of a lethal dose of PAF.
# ICR mice were given test compounds intraperitoneally as described under Inhibition of PAF Induced Vascular Permeability Change in Mouse Skin, 1/2 hour before an intravenous dose of 100 μg/kg PAF in saline. One hour later the number of dead mice were recorded. Protection was expressed as percent survivors in treated group/percent survivors in control group.
# [5] = IC50 (M) PRP, inhibition of PAF-induced platelet aggregation, PAF challenge 1E-6M
# [6] = IC50 (M) PRP, inhibition of PAF-induced platelet aggregation, PAF challenge 1E-7M
# [7] = IC50 (M) PRP, inhibition of PAF-induced platelet aggregation, PAF challenge 5E-8M
# [8] = PAF challenge 5E-8M, read-out: IC50 (M) PRP, inhibition of PAF-induced platelet aggregation
IC50 (PAF receptor [3]; [8]) [M],Compound,Ki (PAF receptor [1]) [nM],IC50 (PAF receptor [1]) [nM],ED50 [2] [mg/kg],Ki (PAF receptor [3]) [nM],IC50 (PAF receptor [3]; [5]) [M],IC50 (PAF receptor [3]; [6]) [M],IC50 (PAF receptor [3]; [7]) [M],Inhibition of Vascular Permeability Lesion (% of Control) [4],ED50 (PAF induced lethality) [mg/kg]
–,"CCCCCCCCCCCCCCCCCCNC(=O)OCC(COP(=O)([O-])Oc1ccccc1C[n+]1ccsc1)OC (stereo not shown) [3-[[2-[(1-Hydroxy-4-methoxy-7-oxo-2,6-dioxa-8-aza-1-phosphahexacosyl)oxy]phenyl]methyl]thiazolium, hydroxide, inner salt, P-oxide]",7.2,52,5,310,2.5e-05,1.4e-06,5.6e-07,25 % of Control,< 2.5
–,"COC(COc1ccc(OCc2ccccc2)cc1)COP(=O)([O-])Oc1cccc(C[n+]2ccsc2)c1 (stereo not shown) [3-[[3-[[Hydroxy-2-methoxy-3-[4-(phenylmethoxy)phenoxy]propoxy]phosphinyl]oxy]phenyl]methyl]thiazolium, hydroxide, inner salt]",–,–,20,–,–,–,3.3e-05,67 % of Control,< 25
–,"CCCCCCCCCCCCCCCCOCC(COP(=O)([O-])Oc1cccc(C[n+]2csc(C)c2)c1)OC (stereo not shown) [3-[[3-[[[3-(Hexadecyloxy)-2-methoxypropoxy]hydroxyphosphinyl]oxy]phenyl]methyl]-5-methylthiazolium, hydroxide, inner salt]",15,32,4.8,210,1.2e-05,7.1e-07,8.2e-07,24 % of Control,< 1.25
–,"CCCCCCCCCCCCCCCCCCNC(=O)OCC(COP(=O)([O-])Oc1cccc(C[n+]2ccsc2)c1)OC (stereo not shown) [3-[[3-[(1-Hydroxy-4-methoxy-7-oxo-2,6-dioxa-8-aza-1-phosphahexacosyl)oxy]phenyl]methyl]thiazolium, hydroxide, inner salt P-oxide]",–,–,6.2,–,–,–,–,61.8 % of Control,–
–,"CCCCCCCCCCCCOc1cccc(OCC(COP(=O)([O-])Oc2cccc(C[n+]3ccsc3)c2)OC)c1C (stereo not shown) [3-[[3-[[[3-[3-(Dodecyloxy)-2-methylphenoxy]-2-methoxypropoxy]hydroxyphosphinyl]oxy]phenyl]methyl]thiazolium, hydroxide, inner salt]",–,–,8.2,510,2.4e-05,1.9e-06,2.3e-06,20.4 % of Control,< 1.25
3.4e-06,"CCCCCCCCCCCCCCCCOCC(COCc1cccc(Cn2cc[n+](C)c2)c1)OC (stereo not shown) [1-[[3-[[3-(Hexadecyloxy)-2-methoxypropoxy]methyl]phenyl]methyl]-3-methyl-1H-imidazolium, iodide]",–,1500,–,–,–,–,–,–,–
–,"CCCCCCCCCCCCOc1cccc(OCC(COP(=O)([O-])Oc2cccc(C[N+](C)(C)C)c2)OC)c1C (stereo not shown) [3-[[[3-[3-(Dodecyloxy)-2-methylphenoxy]-2-methoxypropoxy]hydroxyphosphinyl]oxy]-N,N,N-trimethylbenzenemethanaminum, hydroxide, inner salt]",–,–,–,–,–,–,6e-06,–,–
–,"COC(COCc1ccc(OCc2ccc(Cl)cc2)cc1)COP(=O)([O-])Oc1cccc(C[n+]2ccsc2)c1 (stereo not shown) [3-[[3-[[[3-[[4-[(4-Chlorophenyl)methoxy]phenyl]methoxy]-2-methoxypropoxy]hydroxyphosphinyl]oxy]phenyl]methyl]thiazolium, hydroxide, inner salt]",–,–,–,–,–,–,3e-05,–,–
–,"CCCCCCCCCCCCCCCCOCC(COP(=O)([O-])Oc1cccc(C[n+]2ccsc2)c1)OC (stereo not shown) [3-[[3-[[[3-(Hexadecyloxy)-2-methoxypropoxy]hydroxyphosphinyl]oxy]phenyl]methyl]thiazolium, hydroxide, inner salt]",8,17,5.6,490,4.7e-05,1e-06,9.9e-07,25 % of Control,< 1.25
5.8e-05,CCCCCCCCCCCCCCCCOCC(COCc1cccc(Cn2ccnc2)c1)OC (stereo not shown) [1-[[3-[[3-(Hexdecyloxy)-2-methoxypropoxy]methyl]phenyl]methyl]-1H-imidazole],–,–,–,–,–,–,–,–,–
–,"C=C(C)COC(COCCCCCCCCCCCCCCCC)COP(=O)([O-])Oc1ccccc1C[n+]1ccsc1 (stereo not shown) [3-[[2-[[[3-(Hexadecyloxy)-2-[(2-methyl-2-propenyl)oxy]propoxy]hydroxyphosphinyl]oxy]phenyl]methyl]thiazolium, hydroxide, inner salt]",–,–,–,–,–,–,2.6e-06,–,–
–,"CCCCCCCCCCCCCCc1cccc(OCC(COP(=O)([O-])Oc2cccc(C[n+]3ccsc3)c2)OC)c1 (stereo not shown) [[[3-[[3-[[Hydroxy[2-methoxy-3-(3-tetradecylphenoxy)propoxy]phosphinyl]oxy]phenyl]methyl]thiazolium, hydroxide, inner salt]",1.4,9.5,5.3,210,4e-06,9.5e-07,8.1e-07,3.8 % of Control,< 1.25
–,"CCCCCCCCCCOCCOCCOCC(COP(=O)([O-])Oc1cccc(C[n+]2csc(C)c2)c1)OC (stereo not shown) [3-[[3-[[1-Hydroxy-4-methoxy-2,6,9,12-tetraoxa-1-phosphadocosyl]oxy]phenyl]-methyl]-5-methylthiazolium, hydroxide, inner salt, P-oxide]",–,–,–,–,9.4e-05,3.9e-06,2.2e-06,–,–
